Source: patent US20240108740A1, “THERAPEUTIC COMPOSITIONS INCLUDING SPN10 AND USES THEREOF” (Stealth BioTherapeutics Inc., priority 2022, published 2024)
Residues, ends and D or L forms follow the SMILES beside them.

Key:
Sprague-Dawley rats = test: Example 40: contrast-induced nephropathy in diabetic animals; type: in vivo, rat; conditions: iohexol
Procedure: Animal model: Impaired renal function caused by diabetes is one of the major predisposing factors for contrast induced nephropathy (McCullough, et al., J. Am. Coll. Cardio., 2008, 51, 1419-1428). In this experiment, a total of 57 Sprague-Dawley rats will be fed a high-fat diet for 6 weeks, followed by the administration of low-dose streptozotocin (30 mg/kg) for a period of 9 weeks. Blood glucose, serum creatinine and Cystatin C will be measured. Animals meeting the following criteria (n=20) will advance to CIN studies: Scr>250 μM, Cystatin C>750 ng/mL and blood glucose>=[…]. […]
On day 1, serum samples will be collected and total urine protein will be measured using a Bradford assay. […] Samples will be analyzed by students t-test and differences will be considered significant at p<0.05.
Renal function: Renal function will be assessed by determining serum and urinary creatinine at baseline, 48 hours and 72 hours following dye administration. The creatinine clearance will be calculated based on the serum and urinary creatinine and urinary volume. Urinary protein concentration will be determined by Bradford Protein Assay kit (Sigma, St. Louis, MO, U.S.A.), and Cystatin C will be measured using a Westang Rat Cystatin C kit (Shanghai, P.R.C.).

CD1 mice = test: Example 52: ATP synthesis following a burn injury (^31P NMR, EPR); type: in vivo, mouse
Procedure: Material and Methods. Male 6-week-old CD1 mice weighing 20-25 g will be anesthetized by intraperitoneal (i.p.) injection of 40 mg/kg pentobarbital sodium. The left hind limb of all mice in all groups will be shaved. Burn subjects will be subjected to a nonlethal scald injury of 3-5% total body surface area (TBSA) by immersing the left hind limb in 90° C. water for 3 seconds.
NMR spectroscopy is described in detail in Padfield, et al., Proc. Natl. Acad. Sci., 102:5368-5373 (2005). Briefly, mice will be randomized into 1) burn+control vehicle, 2) burn+peptide conjugate, 3) non-burn+control vehicle, 4) non-burn+peptide conjugate, 5) burn+aromatic-cationic peptides, 6) non-burn+aromatic-cationic peptides, 7) burn+SPN10, 8) non-burn+SPN10, 9) burn+SPN10+aromatic-cationic peptides, and 10) non-burn+SPN10+aromatic-cationic peptides groups. […] T1 relaxation times of Pi and phosphocreatine (PCr) will be measured using an inversion recovery pulse sequence in the presence of γ-ATP saturation. […]

N=C(N)NCCC[C@H](NC(=O)[C@@H](N)Cc1c[nH]c2ccccc12)C(=O)N[C@@H](Cc1c[nH]c2ccccc12)C(=O)N[C@@H](CCCCN)C(N)=O [SPN10, H-L-Trp-L-Arg-L-Trp-L-Lys-NH2] (H-WRWK-NH2)
elevated serum Cystatin C and reduced creatinine clearance following contrast dye (Sprague-Dawley rats): attenuate these effects
ATP synthesis rate in burned mice (CD1 mice; compared to burn controls): significant increase in the ATP synthesis rate
ATP synthesis rate in control healthy mice (CD1 mice; non-burn): increase ATP synthesis rate substantially
